The values that follow come from patent US8637679B2, “Process for the isolation of organic compounds useful for the treatment of cancer” (Council of Scientific and Industrial Research, priority 2011, dated 2014).

The structures appear in SMILES notation. Entries after “also recorded” stand apart in the source; their conditions may differ. Where two headings read alike, the source gives them in different places. Some results are limits rather than exact numbers.

One series addresses Hsp90α (Homo sapiens, UniProt P07900). Description: γ-ATP sepharose binding assay, Hsp90α. As to conditions: mahanine at 50 and 100 μM. How it is done:
5 μg of purified Hsp90α and Hsp90β were pre-incubated separately on ice with 200 μL incubation buffer (10 mM Tris-Hcl, 50 mM KCl, 5 mM MgCl2, 2 mM DTT, 20 mM Na2MoO4, 0.01% NP40, pH 7.5) containing mahanine or 17-AAG and incubated for 30 mins on ice. After the incubation, 25 μL pre-equilibrated γ-phosphate ATP sepharose added and again incubated at 37° C. with frequent agitation.
Sepharose subsequently washed and analyzed by SDS-PAGE. Then the blot was probed with anti Hsp90 antibody and developed by ECL.

Another series relates to K562. Description: MTT cell viability assay, K562. As to conditions: Homo sapiens; K562, 48 hrs. The format is cell-based, human. How it is done: (§1) Human cervical cancer cell lines (HeLa, ME-180 and SiHa), brain tumor cell lines (U87MG, U373MG, U87MG EGFRvIII, T98G, A172 and LN229), lymphoid leukemia (MOLT-3, MOLT-4, REH and CEMC-7), myloid leukemia (K562), pancreatic cancer (MIAPaCa-2, AsPC-1, Panc-1 and Panc 10.05), lung cancer (A549) and colon cancer (HCT116 and SW480) cell lines from American Type Culture Collection, Manassas, Va., USA were grown in IMDM or RPMI (cell specific) Medium supplemented with 10% fetal bovine serum and 1% antibiotic-antimycotic. Cells were cultured in 37° C. in an atmosphere of 5% CO2.
(§2) Viability of cancer cell lines after treatment as at the indicated times was determined by MTT assay. Briefly, 10,000 cells were plated in triplicate in 96 well plates and incubated for 24 and 48 hours in complete media in presence of varying dose of mahanine (0-50 μM). 100 ug MTT was added in each well. Incubate the plate for 1-4 hours at 37° C. and humidified 5% CO2 atmosphere. Absorbance was recorded at 550 nm with 96 well plate readers.

For the next series, the system named is A549. Kind of series: MTT cell viability assay, A549. The class given is cell-based, human. As to conditions: Homo sapiens; A549, 48 hrs. How it is done: as §1, §2
Background: Formazan colour is commonly taken as a measure of viable cells.

The next series has as its system Vero. Kind of series: MTT cell viability assay, Vero normal cells. The class given is cell-based, African monkey.
Another series concerns MIAPaCa-2. Description: Transmigration assay (EGF-driven). The class given is cell-based, human. As to conditions: 24 hrs exposure. How it is done: MIAPaCa-2 cells were treated with mahanine in dose responsive manner for 24 hrs. Afterward, different growth factors (VEGF, EGF and PDGF) were dissolved in medium at a final concentration of 20 ng/ml and added into the outer well of the 24-transwell plate (PromoCell Heidelberg, Germany) as per manufacturer instruction. Mahanine-pretreated cells (5×10^4 cells/well/500 μl) were added into the insert and incubated at in a humidified incubator (37° C., 5% CO2) for 6 hours and subsequently invaded cells were fixed with chilled methanol and stained with 0.1% crystal violet. Random fields were photographed and quantified under the phase contrast microscope.

In a further series the test system is HeLa. Description: 7-AAD flow cytometric apoptosis, HeLa. The class given is cell-based, human. The settings on record: 25 μM mahanine. For orientation: In flow cytometry, cells or beads pass a laser one at a time.
The next series has as its system cancer cell lines. Description: MTT assay, pooled cancer cell lines of several cancer types. The class given is cell-based, human. As to the method: as §1, §2
The test system of series [1] is endoplasmic reticulum (ER) stress in MIAPaCa-2 cells. Description: ER-Tracker Blue-White DPX confocal microscopy. The format is cell-based, human. As to conditions: MIAPaCa-2, 18 hrs, 10 μM and 20 μM mahanine. How it is done:
MIAPaCa-2 cells were seeded in 8 chambered polystyrene culture slide [BD Falcon, USA] at […] cells per well in RPMI-1640 medium supplemented with 10% FBS. After 24 hrs of seeding, cells were exposed to different concentration of mahanine along with vehicle control. Cells were washed with 1× Hanks Balanced Salt Solution (HBSS) after 18 hrs of incubation and processed for ER staining. Pre-warmed ER-Tracker Blue White DPX (Molecular Probes) was added to the cells at 500 nM working concentration and incubated for 30 mins at 37° C. at 5% CO2 incubator. The loading solution was removed and cells were then washed again in HBSS and samples were analyzed using confocal laser scanning microscope (NICON A1-R, NICON, Japan). Images were recorded using 60×/1.40 oil plan Apo-N objectives at calibrated magnification.

Series [2] has as its system orthotopic pancreatic tumour. Kind of series: Orthotopic pancreatic tumour model. The format is in vivo. The settings on record: athymic nude mice.
The next series relates to WI-38. Description: MTT cell viability assay, WI-38 normal cells. The class given is cell-based, human. How it is done: as §2
A further series has as its system SiHa. Description: MTT cell viability assay, SiHa. The format is cell-based. The settings on record: Homo sapiens, 48 hr. How it is done: as §1, §2
For a further series, the system named is CEM C7. Kind of series: MTT cell viability assay, CEM C7. The class given is cell-based, human. The settings on record: Homo sapiens; CEM C7, 48 hrs. As to the method:
as §1, §2

A further series has as its system REH. Kind of series: MTT cell viability assay, REH. The class given is cell-based, human. As to conditions: Homo sapiens, 48 hrs. As to the method:
as §1, §2

Experimental for HeLa: U87MG, LN229, HeLa, SiHa and ME180 (1×10^6 cells) cells were cultured in 6-well plates in presence or absence of Mahanine (25 μM) for 24 hrs. Cells were washed in PBS, incubated with 7-Aminoactinomycin D (7-AAD) at 4° C. for 20 min and processed. Data acquisition was done on a FACSCalibur flow cytometer (BD) at excitation wavelength at 488 nm and emission wavelength at 647 nm and analyzed with CellQuestPro software.

For the molecule `CC(C)=CCCC1(C)C=Cc2c(c(C)cc3c2[nH]c2cc(O)ccc23)O1` (stereo not shown) [Mahanine, mahanine], the “effect on ATP binding to purified Hsp90” value at Hsp90α is given as “could not reduce”. The concentration for half-maximal inhibition (IC50) in the series with K562 is 13 ± 1.1 µM; with A549, 12.8 ± 1.1 µM; with Vero (Primates, Vero normal cell line, 48 hrs) it was > 100 µM; in the series with cancer cell lines (Homo sapiens, Pancreatic cancer cell, 48 h, range, 48 hr treatment, read-out: IC50, glioma, cervical and pancreatic cancer cell lines), 11 to 14 µM; in the series on cancer cell lines (range over glioma and cervical cancer cell lines, 48 hr, listed as 1b, read-out: IC50, glioma and cervical cancer cells), 30 to 50 µM; in the series on cancer cell lines (range over glioma and cervical cancer cell lines, 48 hr, read-out: IC50, glioma and cervical cancer cells), 12 to 17 µM. The IC50 was > 65 µM with WI-38 (Homo sapiens, WI-38 normal cell line, 48 hrs); 14.5 µM in the series on SiHa; 10.2 ± 0.1 µM with CEM C7; 11.6 ± 0.7 µM in the series with REH. For the same molecule, the “sensitivity of Vero cells” value with Vero (proliferating normal cells, in vitro) is listed as “less sensitive”. The “EGF-driven MIAPaCa-2 migration, % of controls” value in the series with MIAPaCa-2 (~0.6×IC50 (10 μM)) is on record as 48.6 % of controls. Further, the “EGF-driven MIAPaCa-2 migration” value with MIAPaCa-2 (~1×IC50, 15 μM) is recorded as “nearly complete inhibition”. The “apoptosis (7-AAD+ve cells)” value with HeLa was 92.28%. In the series on cancer cell lines (Homo sapiens, mahanine at 20 μM, read-out: inhibition of cancer cells), the inhibition at 20 µM is 75 to 85%. The “ER-Tracker staining (ER stress)” value in [1] is given as “significantly increased blue staining”. Further, in series [2], the “orthotopic pancreatic tumour growth” value is given as “tumour growth inhibition”. For the same molecule, in the series on WI-38 (normal human lung fibroblast cells, in vitro), the “sensitivity of WI-38 cells” value is “less sensitive; also recorded: minimum sensitivity”.

What is called IC50 is the concentration that gives 50% inhibition. In general, inhibition refers to the change of the read-out against control, counted positive when it falls.
